Experimental data as given in patent US9867372B2, “Tetrazolinone compound and use of same” (SUMITOMO CHEMICAL COMPANY, LIMITED, priority 2013, dated 2018).

What was measured:
Format in all cases: in vivo
[1] = system: barley net blotch fungus (Pyrenophora teres); experiment: barley net blotch control test, foliar spray before inoculation; details: 3.1 ppm, sprayed 2 days before inoculation (Test Example 1, Comparative Example 1)
[2] = system: cotton aphid (Aphis gossypii); experiment: cotton aphid control test on cucumber, spray; details: 144 h, 20 mL sprayed, counted after 6 days (Test Example 20)
Description: Thirty (30) heads of cotton aphid (Aphis gossypii) (including adults and larvae) were released on the leaves of cucumber (cultivar: […]) grown in a polyethylene cup until the first true leaf was developed. Next day, 20 mL of the above test chemical solution was sprayed. […] Control value (%)={1-(Cb×Tai)/(Cai×Tb)}×100 wherein symbols in the equation represent the followings: Cb: Number of insects before spraying chemical solution in untreated area; Cai: Number of surviving insects in untreated area; Tb: Number of insects before spraying chemical solution in treated area; and Tai: Number of surviving insects in treated area.

[3] = system: common cutworm (Spodoptela litura); experiment: common cutworm larvae mortality test, treated artificial diet; details: 500 ppm, 2 mL on Insecta LF, third instar larvae, after 6 days (Test Example 25)
(Adoxophyes orana) = experiment: Adoxophyes orana larvae mortality test, treated artificial diet; details: 500 ppm, 1 mL on Silkmate 2S, first instar larvae, after 7 days (Test Example 26)
[4] = system: tomato late blight fungus (Phytophthora infestans); details: 500 ppm, sprayed 2 days before inoculation (Test Example 17)

SMILES	pest or weed control at 500 ppm [2] [%]	also measured
Cn1nnn(-c2ccccc2COc2cccc(-c3ccccc3)n2)c1=O [1-methyl-4-[2-(6-phenylpyridin-2-yloxymethyl)-phenyl]-1,4-dihydrotetrazol-5-one, reference compound]		area of lesion spots on the treated plant relative to that on an untreated plant [1]: ≥ 70%
Cc1cccc(-n2nnn(C)c2=O)c1COc1cccc(-c2ccccc2)n1 [compound 1, 1-methyl-4-[3-methyl-2-(6-phenylpyridin-2-yloxymethyl)phenyl]-1,4-dihydrotetrazol-5-one]		area of lesion spots on the treated plant relative to that on an untreated plant [1]: ≤ 30%
COc1ccc(-c2cccc(OCc3c(OC)cccc3-n3nnn(C)c3=O)c2)cc1 [compound 44]	≥ 90	
COc1ccccc1-c1cccc(OCc2c(C)cccc2-n2nnn(C)c2=O)c1 [compound 52]		mortality [3]: 100%; mortality ((Adoxophyes orana)): 100%
COc1ccc(-c2cccc(OCc3c(C)cccc3-n3nnn(C)c3=O)c2)cn1 [compound 57]		area of lesion spots on the treated plant relative to that on an untreated plant [4]: ≤ 30%
COc1cccc(-c2cccc(OCc3c(C)cccc3-n3nnn(C)c3=O)c2F)c1 [compound 111]	≥ 90	
Cc1ccc(OCc2c(C)cccc2-n2nnn(C)c2=O)cc1-c1ccc(F)cc1 [compound 119]	≥ 90	
Cc1ccc(OCc2c(C)cccc2-n2nnn(C)c2=O)cc1-c1ccc(Cl)cc1 [compound 122]	≥ 90	
Cc1cccc(-n2nnn(C)c2=O)c1COc1cc(-c2ccccc2)ccc1Cl [compound 128]	≥ 90	
Cc1cccc(-n2nnn(C)c2=O)c1COc1cc(-c2ccc(Cl)cc2)ccc1F [compound 134]	≥ 90	
COc1cccc(-c2ccc(Cl)c(OCc3c(C)cccc3-n3nnn(C)c3=O)c2)c1 [compound 135]	≥ 90	
COc1ccc(-c2cc(OCc3c(C)cccc3-n3nnn(C)c3=O)ccc2OC)cn1 [compound 139]	≥ 90	
COc1ccc(-c2cc(C)cc(OCc3c(C)cccc3-n3nnn(C)c3=O)c2)cc1 [compound 142]	≥ 90	
Cc1cc(OCc2c(C)cccc2-n2nnn(C)c2=O)cc(-c2ccccc2)c1 [compound 143]	≥ 90	
Cc1cccc(-n2nnn(C)c2=O)c1COc1cccc(-c2ccc3ocnc3c2)c1 [compound 159]	≥ 90	
COc1ccc(-c2cccc(OCc3c(C)cccc3-n3nnn(C)c3=O)c2)nn1 [compound 165, 1-{2-[3-(3-methoxypyridazin-6-yl)phenoxymethyl]-3-methylphenyl}-4-methyl-1,4-dihydrotetrazol-5-one]	≥ 90	
